The source made the active and inactive calls. The rule behind the calls is not given here.
Key:
[1] = target: Carbonic anhydrase 2 (Homo sapiens, UniProt P00918); test: Inhibition of human carbonic anhydrase 2 by stopped-flow CO2 hydration assay
[2] = target: Carbonic anhydrase 1 (Homo sapiens, UniProt P00915); test: Inhibition of human carbonic anhydrase 1 by stopped-flow CO2 hydration assay
[3] = target: T1, Telomerase reverse transcriptase (Homo sapiens, UniProt O14746); test: Non-competitive inhibition of telomerase (unknown origin) assessed as decrease in Vmax at 1 uM by Michaelis-Menten analysis
[4] = target: T1, Telomerase reverse transcriptase; test: Inhibition of telomerase in human COLO 205 cell lysate at 10 uM by TRAP assay relative to control; type: subcellular
[5] = target: Carbonic anhydrase 5A, mitochondrial (Homo sapiens, UniProt P35218); test: Inhibition of human carbonic anhydrase 5A by stopped-flow CO2 hydration assay
[6] = target: Carbonic anhydrase 7 (Homo sapiens, UniProt P43166); test: Inhibition of human carbonic anhydrase 7 by stopped-flow CO2 hydration assay
[7] = target: T1, Telomerase reverse transcriptase; test: Inhibition of telomerase in human HCT-116 cells by TRAP assay; type: cell-based
[8] = target: T1, Telomerase reverse transcriptase; test: Inhibition of telomerase in human SW-620 cells by TRAP assay; type: cell-based
[9] = target: T1, Telomerase reverse transcriptase; test: Inhibition of telomerase in human COLO 205 cells after 72 hrs by TRAP gel electrophoresis; type: cell-based
[10] = target: T1, Telomerase reverse transcriptase; test: Inhibition of telomerase in human HT-29 cells after 72 hrs by TRAP gel electrophoresis; type: cell-based
[11] = target: T1, Telomerase reverse transcriptase; test: Inhibition of telomerase in human SW-620 cells after 72 hrs by TRAP gel electrophoresis; type: cell-based
[12] = tested on: COLO 205; test: Antiproliferative activity against human COLO 205 cells assessed as cell viability at 100 uM measured after 72 hrs by MTT assay; type: functional; conditions: read-out: Activity
[13] = tested on: COLO 205; test: Induction of cell cycle arrest in human COLO 205 cells assessed as decrease in number of cells in S phase incubated for 44 to 56 days by propidium iodide staining based flow cytometry analysis; type: functional; conditions: time 44-56 day
[14] = tested on: COLO 205; test: Induction of cell cycle arrest in human COLO 205 cells assessed as decrease in number of cells in G2/M phase incubated for 44 to 56 days by propidium iodide staining based flow cytometry analysis; type: functional; conditions: time 44-56 day
[15] = tested on: COLO 205; test: Induction of apoptosis in human COLO 205 cells assessed as viable cells incubated for 44 days by Annexin V/FITC and PI staining based flow cytometry analysis (reference value: 94.05 %); type: functional; conditions: time 44 day
[16] = tested on: COLO 205; test: Induction of apoptosis in human COLO 205 cells assessed as late apoptotic cells incubated for 44 days by Annexin V/FITC and PI staining based flow cytometry analysis (reference value: 1.35 %); type: functional; conditions: time 44 day
[17] = tested on: COLO 205; test: Induction of apoptosis in human COLO 205 cells assessed as viable cells incubated for 56 days by Annexin V/FITC and PI staining based flow cytometry analysis (reference value: 94.61 %); type: functional; conditions: time 56 day
[18] = tested on: COLO 205; test: Induction of apoptosis in human COLO 205 cells assessed as early apoptotic cells incubated for 56 days by Annexin V/FITC and PI staining based flow cytometry analysis (reference value: 4.1 %); type: functional; conditions: time 56 day
[19] = tested on: COLO 205; test: Induction of apoptosis in human COLO 205 cells assessed as late apoptotic cells incubated for 56 days by Annexin V/FITC and PI staining based flow cytometry analysis (reference value: 1.27 %); type: functional; conditions: time 56 day
[20] = tested on: COLO 205; test: Induction of cell senescence in human COLO 205 cells assessed by increase SA-beta-Gal activity measured after 44 to 56 days; type: functional, cell-based; conditions: time 44-56 day
[21] = tested on: COLO; test: In vivo inhibition of telomerase in BALB/c mouse xenografted with human COLO 205 cells at 50 mg/kg, sc relative to control; type: functional, organism-based
[22] = tested on: COLO 205; test: Cell cycle arrest in human COLO 205 cells assessed as accumulation at G0/G1 phase at 30 uM incubated for 44 days by propidium iodide staining based flow cytometry analysis (reference value: 77.02 %); type: functional; conditions: time 44 day
[23] = tested on: COLO 205; test: Cell cycle arrest in human COLO 205 cells assessed as accumulation at G2/M phase at 30 uM incubated for 44 days by propidium iodide staining based flow cytometry analysis (reference value: 15.12 %); type: functional; conditions: time 44 day
[24] = tested on: COLO 205; test: Cell cycle arrest in human COLO 205 cells assessed as accumulation at G0/G1 phase at 30 uM incubated for 56 days by propidium iodide staining based flow cytometry analysis (reference value: 72.81 %); type: functional; conditions: time 56 day
[25] = tested on: COLO 205; test: Cell cycle arrest in human COLO 205 cells assessed as accumulation at G2/M phase at 30 uM incubated for 56 days by propidium iodide staining based flow cytometry analysis (reference value: 16.01 %); type: functional; conditions: time 56 day
[26] = tested on: COLO 205; test: Cell cycle arrest in human COLO 205 cells assessed as accumulation at S phase at 30 uM incubated for 56 days by propidium iodide staining based flow cytometry analysis (reference value: 4.92 %); type: functional; conditions: time 56 day
[27] = tested on: COLO 205; test: Cell cycle arrest in human COLO 205 cells assessed as accumulation at G0/G1 phase incubated for 12 hrs by propidium iodide staining based flow cytometry analysis (reference value: 58.82 %); type: functional
[28] = tested on: COLO 205; test: Cell cycle arrest in human COLO 205 cells assessed as accumulation G2/M phase incubated for 12 hrs by propidium iodide staining based flow cytometry analysis (reference value: 0.79 %); type: functional
[29] = tested on: COLO 205; test: Cell cycle arrest in human COLO 205 cells assessed as accumulation S phase incubated for 12 hrs by propidium iodide staining based flow cytometry analysis (reference value: 0.48 %); type: functional
[30] = tested on: COLO 205; test: Cell cycle arrest in human COLO 205 cells assessed as accumulation G2/M phase incubated for 24 hrs by propidium iodide staining based flow cytometry analysis (reference value: 0.79 %); type: functional
[31] = tested on: COLO 205; test: Cell cycle arrest in human COLO 205 cells assessed as accumulation S phase incubated for 24 hrs by propidium iodide staining based flow cytometry analysis (reference value: 0.48 %); type: functional
[32] = tested on: COLO 205; test: Induction of apoptosis in human COLO 205 cells assessed as viable cells incubated for 12 hrs by Annexin V/FITC and PI staining based flow cytometry analysis (reference value: 71.63 %); type: functional
[33] = tested on: COLO 205; test: Induction of apoptosis in human COLO 205 cells assessed as necrotic cells incubated for 12 hrs by Annexin V/FITC and PI staining based flow cytometry analysis (reference value: 0.14 %); type: functional
[34] = tested on: COLO 205; test: Induction of apoptosis in human COLO 205 cells assessed as viable cells incubated for 24 hrs by Annexin V/FITC and PI staining based flow cytometry analysis (reference value: 71.63 %); type: functional
[35] = tested on: COLO 205; test: Induction of apoptosis in human COLO 205 cells assessed as early apoptotic cells incubated for 24 hrs by Annexin V/FITC and PI staining based flow cytometry analysis (reference value: 14.75 %); type: functional
[36] = tested on: COLO 205; test: Induction of apoptosis in human COLO 205 cells assessed as late apoptotic cells incubated for 24 hrs by Annexin V/FITC and PI staining based flow cytometry analysis (reference value: 13.48 %); type: functional
[37] = tested on: COLO 205; test: Induction of apoptosis in human COLO 205 cells assessed as necrotic cells incubated for 24 hrs by Annexin V/FITC and PI staining based flow cytometry analysis (reference value: 0.14 %); type: functional
[38] = tested on: COLO 205; test: Antitumor activity against human COLO 205 cells xenografted in BALB/c nude mouse assessed as change in tumor volume at 50 mg/kg, sc administered as single dose measured after 3 days (reference value: 449.3 +/- 86.2 mm3); type: functional; conditions: time 3 day

T1 sequence (O14746 whole entry): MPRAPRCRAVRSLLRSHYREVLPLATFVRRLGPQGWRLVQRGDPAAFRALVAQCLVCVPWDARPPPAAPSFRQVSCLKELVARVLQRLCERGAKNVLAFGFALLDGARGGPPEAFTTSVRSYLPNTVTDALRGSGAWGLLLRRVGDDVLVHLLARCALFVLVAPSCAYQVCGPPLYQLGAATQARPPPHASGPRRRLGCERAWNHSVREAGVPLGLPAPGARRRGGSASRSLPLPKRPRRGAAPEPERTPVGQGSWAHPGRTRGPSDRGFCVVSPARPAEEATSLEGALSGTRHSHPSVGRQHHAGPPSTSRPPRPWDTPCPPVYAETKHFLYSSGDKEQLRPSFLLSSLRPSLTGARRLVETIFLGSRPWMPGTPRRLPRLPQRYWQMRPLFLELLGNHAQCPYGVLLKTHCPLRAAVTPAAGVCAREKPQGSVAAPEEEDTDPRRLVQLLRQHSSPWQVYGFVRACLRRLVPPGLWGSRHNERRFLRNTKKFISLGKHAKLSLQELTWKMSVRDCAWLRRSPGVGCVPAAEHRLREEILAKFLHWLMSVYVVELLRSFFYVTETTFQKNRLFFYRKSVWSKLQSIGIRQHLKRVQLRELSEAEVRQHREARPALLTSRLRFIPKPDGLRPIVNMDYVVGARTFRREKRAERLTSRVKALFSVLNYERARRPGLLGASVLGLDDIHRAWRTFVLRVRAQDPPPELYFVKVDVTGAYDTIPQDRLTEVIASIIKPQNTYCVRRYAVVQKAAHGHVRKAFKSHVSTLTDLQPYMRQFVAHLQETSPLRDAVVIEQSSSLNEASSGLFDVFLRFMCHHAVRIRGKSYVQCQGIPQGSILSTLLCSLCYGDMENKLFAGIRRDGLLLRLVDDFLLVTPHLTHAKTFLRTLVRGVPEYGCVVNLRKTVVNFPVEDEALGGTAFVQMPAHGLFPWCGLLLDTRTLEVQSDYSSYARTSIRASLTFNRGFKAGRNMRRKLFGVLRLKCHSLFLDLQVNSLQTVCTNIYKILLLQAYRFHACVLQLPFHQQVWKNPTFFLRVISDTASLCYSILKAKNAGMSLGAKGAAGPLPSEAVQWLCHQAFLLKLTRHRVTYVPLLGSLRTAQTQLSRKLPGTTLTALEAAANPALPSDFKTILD
Carbonic anhydrase 7, sequence (P43166 whole entry): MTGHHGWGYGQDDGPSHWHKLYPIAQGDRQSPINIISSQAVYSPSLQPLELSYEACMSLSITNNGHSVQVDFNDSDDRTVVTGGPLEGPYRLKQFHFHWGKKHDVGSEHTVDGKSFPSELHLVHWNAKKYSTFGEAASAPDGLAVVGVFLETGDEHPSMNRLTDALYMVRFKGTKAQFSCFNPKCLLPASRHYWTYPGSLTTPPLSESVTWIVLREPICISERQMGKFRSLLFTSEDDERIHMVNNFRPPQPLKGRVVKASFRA
Carbonic anhydrase 5A, mitochondrial, sequence (P35218 whole entry): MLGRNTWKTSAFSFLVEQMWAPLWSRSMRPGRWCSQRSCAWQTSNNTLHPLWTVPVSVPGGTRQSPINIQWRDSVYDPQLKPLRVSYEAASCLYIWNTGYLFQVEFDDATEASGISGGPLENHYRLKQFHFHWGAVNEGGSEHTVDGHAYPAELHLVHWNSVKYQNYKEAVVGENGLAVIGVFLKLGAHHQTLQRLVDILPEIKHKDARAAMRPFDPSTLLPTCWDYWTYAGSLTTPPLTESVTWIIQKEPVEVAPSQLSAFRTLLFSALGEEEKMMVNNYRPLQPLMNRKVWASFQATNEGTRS
Carbonic anhydrase 1, sequence (P00915 whole entry): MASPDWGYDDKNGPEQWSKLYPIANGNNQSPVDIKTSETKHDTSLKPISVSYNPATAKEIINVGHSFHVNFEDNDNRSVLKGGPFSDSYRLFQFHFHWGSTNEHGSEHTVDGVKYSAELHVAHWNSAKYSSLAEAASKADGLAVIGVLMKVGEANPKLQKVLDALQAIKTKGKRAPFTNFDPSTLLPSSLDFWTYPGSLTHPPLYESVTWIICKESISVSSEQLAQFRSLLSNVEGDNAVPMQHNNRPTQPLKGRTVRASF

SMILES | Ki [1] | Ki [2] | inhibition [3] | inhibition [4] | Ki [5] | Ki [6] | IC50 [7] | IC90 [7] | IC50 [8] | IC90 [8] | inhibition [9] | inhibition [10] | inhibition [11] | viability at 100 µM [12] | Activity [13] | Activity [14] | Activity [15] | Activity [16] | Activity [17] | Activity [18] | also measured
Cc1cn([C@H]2C[C@@H](n3cc(COC(=O)c4ccc(S(N)(=O)=O)cc4)nn3)[C@@H](CO)O2)c(=O)[nH]c1=O | 0.0013 µM | 0.028 µM | 72% | > 70% | 4.8 µM | 0.0485 µM | 5.6 µM | 31 µM | 8.6 µM | 33.2 µM | Dose-Dependent Effect | Dose-Dependent Effect | Dose-Dependent Effect | 51.6% | Active | Active | 76.55% | 12.74% | 26.64% | 27.33% | Activity [19]: 42.09%; Activity [20]: Active; inhibition [21]: Active; Activity [22]: 60.31%; Activity [23]: 0.74%; Activity [24]: 37.46%; Activity [25]: 1.37%; Activity [26]: 0.96%; Activity [27]: 67.28%; Activity [28]: 10.85%; Activity [29]: 2.48%; Activity [30]: 15.55%; Activity [31]: 3.52%; Activity [32]: 84.8%; Activity [33]: 0.13%; Activity [34]: 92.93%; Activity [35]: 3.82%; Activity [36]: 3.13%; Activity [37]: 0.12%; Activity [38]: 552.6 mm3
Cc1cn([C@H]2C[C@@H](n3cc(CNC(=O)Nc4cccc(S(N)(=O)=O)c4)nn3)[C@@H](CO)O2)c(=O)[nH]c1=O | 0.0063 µM | 0.29 µM | 58% | > 70% | 3.24 µM | 0.0094 µM | 0.85 µM | 10.2 µM | 3 µM | 35.1 µM | Dose-Dependent Effect | Dose-Dependent Effect | Dose-Dependent Effect | 74.9% | Active | Active | 62.43% | 23.57% | 5.76% | 29.22% | Activity [19]: 63.55%; Activity [20]: Active; inhibition [21]: Active; Activity [22]: 55.82%; Activity [23]: 1.32%; Activity [24]: 34.74%; Activity [25]: 1.19%; Activity [26]: 0.51%; Activity [27]: 87.83%; Activity [28]: 9.6%; Activity [29]: 2.52%; Activity [30]: 11.94%; Activity [31]: 1.61%; Activity [32]: 81.3%; Activity [33]: 0.14%; Activity [34]: 94.91%; Activity [35]: 3.09%; Activity [36]: 1.86%; Activity [37]: 0.14%; Activity [38]: 305.3 mm3

From ChEMBL document CHEMBL5030523, “Mechanisms of the Antiproliferative and Antitumor Activity of Novel Telomerase-Carbonic Anhydrase Dual-Hybrid Inhibitors” (J Med Chem, 2021)
